According to PubChem BioAssay AID330 (DTP/NCI, 2004):
Where “and” joins values, the source holds several entries; their conditions need not be identical. Equal entries are not always repeated. Inconclusive results and toxic doses are left out. The calls were made as follows: active = survival T/C of 150% or more; inactive = T/C below 125% in these data.

Test system: P388 leukemia ip, CD2F1 mice, survival T/C
Test: NCI In Vivo Anticancer Drug Screen. Data for tumor model P388 Leukemia (intraperitoneal) in CD2F1 (CDF1) mice
Conditions: endpoint: median survival time, higher = longer survival
Procedure, shortened: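 Mice carrying the transplanted tumor received test compound or vehicle. Survival was recorded in each group, and the value is the treated-group measurement divided by that of the vehicle-treated control group.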

[1] = dose: 50.0 mg/kg/injection, schedule: Q01DX009 (ip), vehicle: Klucel (hydroxypropylcellulose) (HPC)
[2] = dose: 100.0 mg/kg/injection, schedule: Q01DX009 (ip), vehicle: Klucel (hydroxypropylcellulose) (HPC)
[3] = dose: 100.0 mg/kg/injection, schedule: Q04DX003 (ip), vehicle: Klucel (hydroxypropylcellulose) (HPC)
[4] = dose: 200.0 mg/kg/injection, schedule: Q04DX003 (ip), vehicle: Klucel (hydroxypropylcellulose) (HPC)
[5] = dose: 100.0 mg/kg/injection, schedule: Q01DX009 (ip), vehicle: saline with Tween-80
[6] = dose: 200.0 mg/kg/injection, schedule: Q01DX009 (ip), vehicle: saline with Tween-80
[7] = dose: 50.0 mg/kg/injection, schedule: Q01DX009 (ip), vehicle: saline with Tween-80
[8] = dose: 60.0 mg/kg/injection, schedule: Q01DX005 (ip), vehicle: Klucel (hydroxypropylcellulose) (HPC)
[9] = dose: 120.0 mg/kg/injection, schedule: Q01DX005 (ip), vehicle: Klucel (hydroxypropylcellulose) (HPC)
[10] = dose: 240.0 mg/kg/injection, schedule: Q01DX005 (ip), vehicle: Klucel (hydroxypropylcellulose) (HPC)
[11] = dose: 25.0 mg/kg/injection, schedule: Q01DX005 (ip), vehicle: saline with Tween-80
[12] = dose: 50.0 mg/kg/injection, schedule: Q01DX005 (ip), vehicle: saline with Tween-80
[13] = dose: 100.0 mg/kg/injection, schedule: Q01DX005 (ip), vehicle: saline with Tween-80
[14] = dose: 200.0 mg/kg/injection, schedule: Q01DX005 (ip), vehicle: saline with Tween-80

Measured: T/C

COC(OC)C1(C)NC(=O)NC1=O (stereo unspecified)
inactive: [1] 102 % of control | [2] 103 % of control | [3] 95 % of control | dose: 200.0 mg/kg/injection, schedule: Q01DX009 (ip), vehicle: Klucel (hydroxypropylcellulose) (HPC) 93 % of control | [4] 98 % of control | dose: 400.0 mg/kg/injection, schedule: Q04DX003 (ip), vehicle: Klucel (hydroxypropylcellulose) (HPC) 100 % of control

CN1NC(c2ccc(N(C)C)cc2)(c2ccc(N(C)C)cc2)c2ccc(N(C)C)cc2C1=O
inactive: dose: 100.0 mg/kg/injection, schedule: Q04DX002 (ip), vehicle: saline with Tween-80 90 % of control | dose: 200.0 mg/kg/injection, schedule: Q04DX002 (ip), vehicle: saline with Tween-80 88 % of control | dose: 400.0 mg/kg/injection, schedule: Q04DX002 (ip), vehicle: saline with Tween-80 88 % of control

CC(=O)OC1(C)CC2(CCCCC2)N=N1 (stereo unspecified)
inactive: dose: 12.5 mg/kg/injection, schedule: Q01DX009 (ip), vehicle: other 100 % of control | dose: 25.0 mg/kg/injection, schedule: Q01DX009 (ip), vehicle: other 113 % of control | dose: 50.0 mg/kg/injection, schedule: Q01DX009 (ip), vehicle: other 98 % of control | dose: 100.0 mg/kg/injection, schedule: Q01DX009 (ip), vehicle: other 111 % of control and 91 % of control | dose: 200.0 mg/kg/injection, schedule: Q01DX009 (ip), vehicle: other 107 % of control | dose: 400.0 mg/kg/injection, schedule: Q01DX009 (ip), vehicle: other 113 % of control

CC(=O)OCC(=O)[C@@]1(O)CC[C@H]2[C@@H]3CCC4=CC(=O)CC[C@]4(C)[C@@]3(Cl)[C@@H](O)C[C@@]21C
inactive: dose: 88.0 mg/kg/injection, schedule: Q04DX003 (ip), vehicle: saline with Tween-80 123 % of control | [5] 118 % of control | dose: 132.0 mg/kg/injection, schedule: Q04DX003 (ip), vehicle: saline with Tween-80 123 % of control | [6] 90 % of control | dose: 200.0 mg/kg/injection, schedule: Q04DX003 (ip), vehicle: saline with Tween-80 114 % of control | dose: 300.0 mg/kg/injection, schedule: Q04DX003 (ip), vehicle: saline with Tween-80 123 % of control | dose: 400.0 mg/kg/injection, schedule: Q01DX009 (ip), vehicle: saline with Tween-80 100 % of control | dose: 400.0 mg/kg/injection, schedule: Q04DX003 (ip), vehicle: saline with Tween-80 109 % of control

Cc1nc(N)c2nc(SC(C)C)c(N)nc2n1
inactive: [7] 91 % of control | [5] 91 % of control | [6] 91 % of control

Cc1c(CN2CCOC(c3ccccc3)C2C)c(=O)n(-c2ccccc2)n1C (stereo unspecified)
inactive: [1] 93 % of control | [2] 103 % of control

Cc1cc2c(C)c(-c3ccccc3)c(=O)oc2c(C#N)c1C
inactive: dose: 15.0 mg/kg/injection, schedule: Q01DX005 (ip), vehicle: Klucel (hydroxypropylcellulose) (HPC) 104 % of control | dose: 30.0 mg/kg/injection, schedule: Q01DX005 (ip), vehicle: Klucel (hydroxypropylcellulose) (HPC) 95 % of control | [8] 90 % of control and 95 % of control

COc1cc(-c2c(C)oc(C)c2C(C)=O)ccc1OCc1ccccc1
inactive: [8] 92 % of control | [9] 97 % of control | [10] 91 % of control

N=c1nc(N)nc2n1N=C(c1ccc(Cl)cc1)CS2
inactive: [11] 102 % of control | [12] 92 % of control | [13] 90 % of control

COc1ccc(-n2c(=O)[nH]c3ccccc3c2=O)cc1
inactive: [7] 108 % of control | [5] 100 % of control | [6] 104 % of control

COC1=CC(=O)C(c2cc(O)c(OC)cc2O)=CC1=O
inactive: dose: 12.0 mg/kg/injection, schedule: Q01DX005 (ip), vehicle: saline with Tween-80 114 % of control | [11] 108 % of control | [12] 99 % of control

CC1C[N+]2(CNC(=O)c3ccccc3O)CC(C)O[B-]2(c2ccccc2)O1 (stereo unspecified)
inactive: dose: 50.0 mg/kg/injection, schedule: Q01DX005 (ip), vehicle: Klucel (hydroxypropylcellulose) (HPC) 103 % of control | dose: 100.0 mg/kg/injection, schedule: Q01DX005 (ip), vehicle: Klucel (hydroxypropylcellulose) (HPC) 100 % of control | dose: 200.0 mg/kg/injection, schedule: Q01DX005 (ip), vehicle: Klucel (hydroxypropylcellulose) (HPC) 103 % of control

Cc1cc(C)nc(NS(=O)(=O)c2ccc(N=c3c4ccccc4n(C)c4ccccc34)cc2)n1
inactive: [12] 90 % of control | [13] 97 % of control | [14] 90 % of control

CC/C(C=O)=C\NC(=O)Nc1ccccc1
inactive: dose: 100.0 mg/kg/injection, schedule: Q01DX001 (ip), vehicle: saline with Tween-80 97 % of control | dose: 200.0 mg/kg/injection, schedule: Q01DX001 (ip), vehicle: saline with Tween-80 101 % of control | dose: 400.0 mg/kg/injection, schedule: Q01DX001 (ip), vehicle: saline with Tween-80 98 % of control

O=C(NO)C(O)C(O)C(O)CO (stereo unspecified)
inactive: dose: 50.0 mg/kg/injection, schedule: Q01DX009 (ip), vehicle: saline 101 % of control | dose: 100.0 mg/kg/injection, schedule: Q01DX009 (ip), vehicle: saline 104 % of control | dose: 200.0 mg/kg/injection, schedule: Q01DX009 (ip), vehicle: saline 104 % of control

O=C(O)CNC(CO)C(=O)O (stereo unspecified)
inactive: dose: 25.0 mg/kg/injection, schedule: Q01DX005 (ip), vehicle: water 100 % of control | dose: 50.0 mg/kg/injection, schedule: Q01DX005 (ip), vehicle: water 100 % of control | dose: 100.0 mg/kg/injection, schedule: Q01DX005 (ip), vehicle: water 95 % of control | dose: 200.0 mg/kg/injection, schedule: Q01DX005 (ip), vehicle: water 89 % of control

C(#Cc1ccncc1)c1ccncc1
inactive: [12] 100 % of control | [13] 98 % of control

CCn1c2ccc([N+](=O)[O-])cc2c2c([N+](=O)[O-])c(NC=O)ccc21
inactive: [12] 90 % of control | [13] 95 % of control | [14] 86 % of control

C/C(=C/c1ccccc1)C(=O)C1C(c2ccccc2)CC(O)C(C)C1c1ccccc1 (stereo unspecified)
inactive: [3] 93 % of control | [4] 88 % of control

CN1C(=O)N(C)N(Cc2ccccc2)C(=O)N1Cc1ccccc1
inactive: [8] 97 % of control | [9] 100 % of control | [10] 96 % of control

CCOC(=O)c1nc(C)n2cc([N+](=O)[O-])ccc12
inactive: dose: 2.0 mg/kg/injection, schedule: Q01DX009 (ip), vehicle: saline 86 % of control | dose: 4.0 mg/kg/injection, schedule: Q01DX009 (ip), vehicle: saline 91 % of control | dose: 8.0 mg/kg/injection, schedule: Q01DX009 (ip), vehicle: saline 88 % of control

Nc1nc(N)c2c(Cl)c(CNc3ccc(Cl)c(Cl)c3)ccc2n1
inactive: dose: 0.18 mg/kg/injection, schedule: Q01DX009 (ip), vehicle: saline with Tween-80 97 % of control | dose: 0.37 mg/kg/injection, schedule: Q01DX009 (ip), vehicle: saline with Tween-80 102 % of control | dose: 0.75 mg/kg/injection, schedule: Q01DX009 (ip), vehicle: saline with Tween-80 99 % of control | dose: 1.5 mg/kg/injection, schedule: Q01DX009 (ip), vehicle: saline with Tween-80 99 % of control
